The source of these data is patent US9321756B2, “Azole compounds as PIM inhibitors” (priority 2011, dated 2016).

Assay [1] addresses full length recombinant Pim-2 (Homo sapiens (Human), UniProt Q9P1W9). The experiment in a line: Pim enzyme assay (HTRF, phosphorylation of biotinylated-BAD (S112) peptide), Pim-2. The format is biochemical. The conditions noted are these: read-out: Pim2_IC50. (Time-resolved FRET reads energy transfer from a long-lived donor to a nearby acceptor.)
Assay [2] concerns the target full length recombinant Pim-1 (Homo sapiens (Human), UniProt P11309). The assay can be described thus: Pim enzyme assay (HTRF, phosphorylation of biotinylated-BAD (S112) peptide), Pim-1. It counts as biochemical.
[3] abbreviates: Pim-1 enzyme assay, read-out: Pim_1_IC50.
[4] abbreviates: HTRF, 10-point curve, high dose 1 uM, 45 min at RT.
The mark [5] stands for this setting: HTRF, 10-point curve, high dose 1 uM, 2 h at RT, read-out: Pim_1_IC50.

Molecules are shown by their SMILES. Where two headings read alike, the source gives them in different places.

Chain of full length recombinant Pim-1 (P11309 whole entry): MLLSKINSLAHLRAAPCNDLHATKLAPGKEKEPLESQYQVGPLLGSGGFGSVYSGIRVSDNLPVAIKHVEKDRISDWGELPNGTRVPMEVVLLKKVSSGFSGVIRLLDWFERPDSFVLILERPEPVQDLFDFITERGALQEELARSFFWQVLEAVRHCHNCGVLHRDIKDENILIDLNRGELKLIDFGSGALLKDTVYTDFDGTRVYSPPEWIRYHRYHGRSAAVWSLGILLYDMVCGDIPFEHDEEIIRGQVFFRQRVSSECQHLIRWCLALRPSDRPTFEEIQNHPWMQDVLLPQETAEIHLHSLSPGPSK
Chain of full length recombinant Pim-2 (Q9P1W9 whole entry): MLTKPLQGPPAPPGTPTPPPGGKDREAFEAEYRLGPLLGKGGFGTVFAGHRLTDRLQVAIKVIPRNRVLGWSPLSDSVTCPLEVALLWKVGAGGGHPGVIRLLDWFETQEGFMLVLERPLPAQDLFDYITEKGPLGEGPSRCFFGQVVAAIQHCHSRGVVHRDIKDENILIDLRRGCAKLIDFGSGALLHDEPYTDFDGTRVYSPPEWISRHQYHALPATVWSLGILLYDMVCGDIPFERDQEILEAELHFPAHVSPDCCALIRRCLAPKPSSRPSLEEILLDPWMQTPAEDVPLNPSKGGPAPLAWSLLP

`CC(=O)Nc1nc(-c2ccc3[nH]cc(-c4cncc(OC(C)C)n4)c3c2)no1` [Example 74, N-(3-(3-(6-isopropoxypyrazin-2-yl)-1H-indol-5-yl)-1,2,4-oxadiazol-5-yl)acetamide]: the IC50 in assay [1] (Pim-2 enzyme assay) was more than 1 µM; in assay [2] (setting [3]) it was 0.186 µM. The corresponding values for `CC(C)Nc1nnc(-c2ccc3[nH]cc(-c4ncc(F)c(C5CC5)n4)c3c2)o1` [Example 262, 5-(3-(4-cyclopropyl-5-fluoro-2-pyrimidinyl)-1H-indol-5-yl)-N-(1-methylethyl)-1,3,4-oxadiazol-2-amine] are 0.00277 µM and 0.00253 µM. For the compound `Cc1ccnc(-c2c[nH]c3ccc(-c4nnc(NC(C)(C)C)o4)cc23)n1` [Example 270, N-tert-butyl-5-(3-(4-methyl-2-pyrimidinyl)-1H-indol-5-yl)-1,3,4-oxadiazol-2-amine], the figures for the IC50 in assay [1] (Pim-2 enzyme assay) and in assay [2] (setting [3]) were 0.0348 µM and 0.00877 µM, respectively. For the compound `Cc1cncc(-c2c[nH]c3ccc(-c4nnc(-c5ccccc5)s4)cc23)n1` [Example 274, 3-(6-methyl-2-pyrazinyl)-5-(5-phenyl-1,3,4-thiadiazol-2-yl)-1H-indole], the IC50 in assay [1] (Pim-2 enzyme assay) and in assay [2] was more than 1 µM in each case. On to `CC(C)Nc1nnc(-c2ccc3[nH]cc(-c4cncc(C(=O)NC5CC5)c4)c3c2)o1` [Example 299, N-cyclopropyl-5-(5-(5-((1-methylethyl)amino)-1,3,4-oxadiazol-2-yl)-1H-indol-3-yl)-3-pyridinecarboxamide], for which the results for the IC50 in assay [1] (setting [4]) and in assay [2] (setting [5]) were 0.299 µM and 0.767 µM, respectively. On to `CC(C)Nc1cncc(-c2c[nH]c3ccc(-c4noc(N)n4)cc23)n1` [Example 70, 3-(3-(6-(isopropylamino)pyrazin-2-yl)-1H-indol-5-yl)-1,2,4-oxadiazol-5-amine], for which the IC50 in assay [1] (Pim-2 enzyme assay) was found to be 0.362 µM; in assay [2] (setting [3]), 0.0304 µM. With `CNC(=O)c1ccc(F)c(-c2c[nH]c3ccc(-c4nnc(NC(C)C)o4)cc23)c1` [Example 289, 4-fluoro-3-(5-(5-(isopropylamino)-1,3,4-oxadiazol-2-yl)-1H-indol-3-yl)-N-methylbenzamide], the results for the IC50 in assay [1] (setting [4]) and in assay [2] were 0.301 µM and 0.233 µM, respectively. Take `CC(C)Nc1nnc(-c2ccc3[nH]cc(-c4ncc(C(=O)NC5CC5)s4)c3c2)o1` [Example 275, N-cyclopropyl-2-(5-(5-((1-methylethyl)amino)-1,3,4-oxadiazol-2-yl)-1H-indol-3-yl)-1,3-thiazole-5-carboxamide]: the IC50 in assay [1] (setting [4]) came to 0.705 µM; in assay [2] (setting [5]), 0.259 µM. The corresponding values for `CNC(=O)c1ccnc(-c2c[nH]c3ccc(-c4nnc(NC(C)C)o4)cc23)n1` [Example 282, N-methyl-2-(5-(5-((1-methylethyl)amino)-1,3,4-oxadiazol-2-yl)-1H-indol-3-yl)-4-pyrimidinecarboxamide 2,2,2-trifluoroacetate] are 0.652 µM and 0.509 µM. Turning to `CC(C)Nc1nnc(-c2ccc3[nH]cc(-c4nccc(C(=O)NC5CC5)n4)c3c2)o1` [Example 283, N-cyclopropyl-2-(5-(5-((1-methylethyl)amino)-1,3,4-oxadiazol-2-yl)-1H-indol-3-yl)-4-pyrimidinecarboxamide 2,2,2-trifluoroacetate], the IC50 was 0.453 µM in assay [1] (setting [4]) and 0.517 µM in assay [2] (setting [5]).

In the case of `Cc1cc(N)nc(-c2c[nH]c3ccc(-c4nnc(NC(C)(C)C)o4)cc23)n1` [Example 272, 2-(5-(5-(tert-butylamino)-1,3-4-oxadiazol-2-yl)-1H-indol-3-yl)-6-methyl-4-pyrimidinamine], the IC50 worked out at 0.351 µM in assay [1] (Pim-2 enzyme assay) and 0.105 µM in assay [2] (setting [3]).

With `CC(C)Nc1cncc(-c2c[nH]c3ccc(-c4nc(N)no4)cc23)n1` [Example 67, 5-(3-(6-(isopropylamino)pyrazin-2-yl)-1H-indol-5-yl)-1,2,4-oxadiazol-3-amine], the figures for the IC50 in assay [1] and in assay [2] (setting [3]) were 0.0589 µM and 0.00579 µM, respectively. For `CC(C)(C)Nc1nnc(-c2ccc3[nH]cc(-c4ncc(F)c(C5CC5)n4)c3c2)o1` [Example 56, N-tert-butyl-5-(3-(4-cyclopropyl-5-fluoropyrimidin-2-yl)-1H-indol-5-yl)-1,3,4-oxadiazol-2-amine], the IC50 in assay [2] (setting [3]) came out at 0.00253 µM. Take `CNC(=O)c1cccc(-c2c[nH]c3ccc(-c4nnc(NC(C)C)o4)cc23)n1` [Example 285, 6-(5-(5-(isopropylamino)-1,3,4-oxadiazol-2-yl)-1H-indol-3-yl)-N-methylpicolinamide]: the values for the IC50 in assay [1] (setting [4]) and in assay [2] (setting [5]) were 0.76 µM and 0.401 µM, respectively. Take `COc1nc(-c2c[nH]c3ccc(-c4nnc(NC(C)(C)C)o4)cc23)ncc1F` [Example 55, N-tert-butyl-5-(3-(5-fluoro-4-methoxypyrimidin-2-yl)-1H-indol-5-yl)-1,3,4-oxadiazol-2-amine 2,2,2-trifluoroacetate]: the IC50 came out at 0.0287 µM in assay [1] (Pim-2 enzyme assay) and 0.00877 µM in assay [2]. As for `CC(C)Nc1nnc(-c2ccc3[nH]cc(-c4nccc(N5CCN(C)C(=O)C5)n4)c3c2)o1` [Example 61, 4-(2-(5-(5-(isopropylamino)-1,3,4-oxadiazol-2-yl)-1H-indol-3-yl)pyrimidin-4-yl)-1-methylpiperazin-2-one], the IC50 in assay [1] (Pim-2 enzyme assay) came to 0.0468 µM; in assay [2] (setting [3]) it was 0.0459 µM.

Consider `CNc1nc(-c2ccc3[nH]cc(-c4cncc(OC(C)C)n4)c3c2)no1` [Example 72, 3-(3-(6-isopropoxypyrazin-2-yl)-1H-indol-5-yl)-N-methyl-1,2,4-oxadiazol-5-amine], for which the IC50 in assay [2] (setting [3]) came to 0.0695 µM.

On to `CC(C)Cn1cc(-c2c[nH]c3ccc(-c4nnc(N)o4)nc23)cn1` [Example 127, 5-(3-(1-(2-methylpropyl)-1H-pyrazol-4-yl)-1H-pyrrolo[3,2-b]pyridin-5-yl)-1,3,4-oxadiazol-2-amine], for which, in assay [2] (setting [3]), the IC50 was determined as 0.389 µM. Consider `CC(C)Nc1nnc(-c2ccc3[nH]cc(-c4cc(C(=O)N(C)C)ccc4F)c3c2)o1` [Example 302, 4-fluoro-N,N-dimethyl-3-(5-(5-((1-methylethyl)amino)-1,3,4-oxadiazol-2-yl)-1H-indol-3-yl)benzamide], for which the IC50 in assay [2] (setting [5]) turned out to be 0.291 µM. `CC(C)Oc1cccc(-c2c[nH]c3ccc(-c4nsc(N)n4)cc23)n1` [Example 65, 3-(3-(6-isopropoxypyridin-2-yl)-1H-indol-5-yl)-1,2,4-thiadiazol-5-amine]: in assay [2] (setting [3]), the IC50 was found to be 0.335 µM. In the case of `CC(C)Nc1nnc(-c2ccc3[nH]cc(-c4ccc(C(N)=O)cn4)c3c2)o1` [Example 303, 6-(5-(5-((1-methylethyl)amino)-1,3,4-oxadiazol-2-yl)-1H-indol-3-yl)-3-pyridinecarboxamide], in assay [2] (setting [5]), the IC50 amounted to 0.268 µM. With `CC(C)Nc1nnc(-c2ccc3[nH]cc(-c4nc(C(N)=O)cc(C5CC5)n4)c3c2)o1` [Example 48, 6-cyclopropyl-2-(5-(5-(isopropylamino)-1,3,4-oxadiazol-2-yl)-1H-indol-3-yl)pyrimidine-4-carboxamide], in assay [2] (setting [3]), the IC50 came to 0.00253 µM.

Regarding `CC(C)Nc1nnc(-c2ccc3[nH]cc(-c4cccc(C(=O)NC5CC5)n4)c3c2)o1` [Example 294, N-cyclopropyl-6-(5-(5-((1-methylethyl)amino)-1,3,4-oxadiazol-2-yl)-1H-indol-3-yl)-2-pyridinecarboxamide], the IC50 in assay [2] (setting [5]) was 0.664 µM.

For `CNC(=O)c1ccc(-c2c[nH]c3ccc(-c4nnc(NC(C)C)o4)cc23)nc1` [Example 295, N-methyl-6-(5-(5-((1-methylethyl)amino)-1,3,4-oxadiazol-2-yl)-1H-indol-3-yl)-3-pyridinecarboxamide], the IC50 in assay [2] (setting [5]) is 0.578 µM.
